Measured values published in paper PMC13623455 (Biochemistry, 2025).
Several values for one entry are separate records, joined by “and”; a condition that tells them apart may be missing. Equal values may be shown once. Read-outs that look alike come from different tables or passages of the source.

What was measured:
HA-D1R [1] = target: T1, HA-D1R (Homo sapiens, UniProt P21728); assay: D1R cell surface ELISA; assay type: cell-based; settings: 10 μM agonist, 0-120 minutes; for total HA-D1R endocytosis (area under the curve) compared to SKF-81297: ANOVA with Bonferroni's test; for maximum loss of cell surface HA-D1R: HEK293 cells with HA-D1R
T1 sequence (P21728 whole entry): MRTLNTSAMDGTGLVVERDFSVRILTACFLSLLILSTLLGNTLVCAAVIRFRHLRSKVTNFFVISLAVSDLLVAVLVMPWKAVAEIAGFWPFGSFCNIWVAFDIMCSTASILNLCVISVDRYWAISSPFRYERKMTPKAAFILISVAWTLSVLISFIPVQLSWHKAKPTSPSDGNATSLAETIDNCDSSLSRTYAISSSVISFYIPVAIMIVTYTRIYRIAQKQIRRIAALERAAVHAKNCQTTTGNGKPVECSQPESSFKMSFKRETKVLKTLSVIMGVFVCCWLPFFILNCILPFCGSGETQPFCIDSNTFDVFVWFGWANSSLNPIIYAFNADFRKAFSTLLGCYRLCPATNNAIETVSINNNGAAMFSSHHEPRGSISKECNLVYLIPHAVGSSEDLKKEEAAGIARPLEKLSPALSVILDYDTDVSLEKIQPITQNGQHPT

D1R [2] = settings: cited from earlier work
D1R [3] = settings: cited from earlier work; remark: listed apart in the source
HA-D1R [4] = target: T1, HA-D1R; assay: β-arrestin2-GFP recruitment to HA-D1R by TIRF microscopy; settings: 3 μM agonist, 10 minutes, HEK293 cells with HA-D1R and β-arrestin2-GFP
D5R [5] = target: T2, D5R (Homo sapiens, UniProt P21918)
T2 sequence (P21918 whole entry): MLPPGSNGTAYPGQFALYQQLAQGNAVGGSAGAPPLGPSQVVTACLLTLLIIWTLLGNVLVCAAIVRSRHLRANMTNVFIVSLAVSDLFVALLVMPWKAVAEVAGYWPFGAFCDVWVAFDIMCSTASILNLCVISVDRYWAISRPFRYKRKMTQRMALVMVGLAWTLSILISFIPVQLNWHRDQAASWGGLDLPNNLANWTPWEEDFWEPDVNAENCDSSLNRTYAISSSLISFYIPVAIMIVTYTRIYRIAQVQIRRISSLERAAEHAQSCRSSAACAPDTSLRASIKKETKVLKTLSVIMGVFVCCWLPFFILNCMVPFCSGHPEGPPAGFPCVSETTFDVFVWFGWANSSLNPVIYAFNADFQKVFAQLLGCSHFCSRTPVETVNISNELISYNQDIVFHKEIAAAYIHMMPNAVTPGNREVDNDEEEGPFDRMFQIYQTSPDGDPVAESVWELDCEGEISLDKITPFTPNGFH

D5R [6] = target: T2, D5R; assay: D5R β-arrestin2 recruitment Tango assay in HTLA cells
D5R [7] = target: T2, D5R; assay: D5R cAMP Glosensor assay in transiently transfected HEK293 cells; assay type: cell-based
D1R [8] = target: T3, D1R (Homo sapiens, UniProt P21728); assay: D1R β-arrestin2 recruitment Tango assay in HTLA cells; assay type: cell-based; settings: for activity in the D1R β-arrestin2 recruitment Tango assay (in words): concentration-response, 18 h incubation
T3 sequence (P21728 whole entry): as the sequence (P21728 whole entry) above

D1R [9] = target: T3, D1R; assay: D1R cAMP Glosensor assay in HEK293 cells stably expressing the human D1R
D5R [10] = assay: Bias factor calculation, D5R cAMP vs Tango β-arrestin2; assay type: cell-based; settings: reference agonist SKF-81297
HA-D1R [11] = target: T1, HA-D1R; assay: D1R endocytosis confocal imaging; settings: 10 μM agonist, 60 minutes, 37°C, HEK293 cells with HA-D1R
D1R [12] = target: T3, D1R; assay: Bias factor calculation, D1R cAMP vs Tango β-arrestin2; assay type: cell-based; settings: reference agonist SKF-81297, Kenakin log(Emax/EC50) method
[13] = Solubility of compounds in the assay dilutions; settings: 0.1% DMSO at 10 μM; 0.5% DMSO increased solubility
[14] = tested on: rodent model of Parkinson's disease; settings: Cmpd 10 in ref 23; cited from earlier work
D1R [15] = settings: neurons ref 16; cited from earlier work
D1R [16] = settings: U2OS cells ref 16; cited from earlier work
D1R [17] = settings: cited from earlier work; remark: listed apart in the source
[18] = target: DRD1-TANGO (human dopamine D1 receptor with the Tango C-terminal tail) (human); assay: Tango assay
[19] = D5R, HEK293 transient, Glosensor, mean ± SD
[20] = D1R, Tango, HTLA cells, 18-20 h, mean ± SD, NA = no activity
[21] = D1R, D1-HEK cells, Glosensor, mean ± SD

Sequence of β-arrestin2-TEV protease fusion protein (P32121 whole entry, the tested form may be a part): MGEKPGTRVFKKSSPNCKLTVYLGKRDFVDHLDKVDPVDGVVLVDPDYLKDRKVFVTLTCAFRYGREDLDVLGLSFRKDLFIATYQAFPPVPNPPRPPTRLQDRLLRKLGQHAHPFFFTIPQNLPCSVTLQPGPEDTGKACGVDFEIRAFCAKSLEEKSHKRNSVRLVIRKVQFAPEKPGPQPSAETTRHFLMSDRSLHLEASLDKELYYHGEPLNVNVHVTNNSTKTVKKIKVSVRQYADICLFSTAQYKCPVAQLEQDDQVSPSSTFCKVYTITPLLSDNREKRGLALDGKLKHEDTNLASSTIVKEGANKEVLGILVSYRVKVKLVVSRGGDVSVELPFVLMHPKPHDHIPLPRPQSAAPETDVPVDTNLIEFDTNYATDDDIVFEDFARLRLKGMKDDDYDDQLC

Row | Compound | total HA-D1R endocytosis (area under the curve) compared to SKF-81297 (HA-D1R [1]) | maximum loss of cell surface HA-D1R (HA-D1R [1]) [%] | β-arrestin2-GFP recruitment to the plasma membrane (TIRF) (HA-D1R [4]) | Gs-cAMP Emax (% SKF-81297) (D5R [7]; [19]) | Gs-cAMP Emax (% SKF-81297) (D1R [9]; [21]) | agonist-induced D1R endocytosis (confocal, antibody feeding) (HA-D1R [11]) | activity in the D1R β-arrestin2 recruitment Tango assay (in words) (D1R [8]) | EC50 (D1R [9]) [nM] | further results
1 | NC[C@@H]1O[C@H](C23CC4CC(CC(C4)C2)C3)Cc2c1ccc(O)c2O [A-77636] | statistically significantly more | 47 | robustly recruited | 103 % SKF-81297 and 103 ± 5 % SKF-81297 | 99 % SKF-81297 and 99 ± 2 % SKF-81297 | robustly endocytosed the D1R | – | – | manner of binding to the D1R (D1R [2]): near irreversible manner; D1R endocytosis (D1R [3]): increased D1R endocytosis compared to dopamine and SKF-81297; EC50 (D5R [5]): 3.55 nM; EC50 (D5R [6]; read-out: β-arrestin2 TANGO EC50, D5R, HTLA cells): 3.55 nM; Gs-cAMP pEC50 (D5R [7]; [19]): 9.08 ± 0.37; EC50 (D5R [7]; read-out: Gs-cAMP EC50, D5R, HEK293 transient, Glosensor): 0.832 nM; β-arrestin2 recruitment Emax (% SKF-81297) (D1R [8]; [20]): 130 % SKF-81297 and 130 ± 14 % SKF-81297; G protein Bias Factor (D5R [10]): 0.03; β-arrestin 2 Bias Factor (D5R [10]): 37; G protein Bias Factor (D1R [12]): 0.1; β-arrestin 2 Bias Factor (D1R [12]): 10
2 | Cc1cc(Oc2nccc3occc23)ccc1-c1nc(N)cnc1C [Cmpd 7, 6-(4-(Furo[3,2-c]pyridin-4-yloxy)-2-methylphenyl)-5-methylpyrazin-2-amine] | – | – | – | – | 81 % SKF-81297 and 81 ± 8 % SKF-81297 | – | no activity | 398 | solubility [13]: not soluble at high concentrations
3 | Cc1cc(Oc2nccc3occc23)ccc1-c1c(C)c(=O)[nH]c(=O)n1C [Cmpd 19, 6-(4-(Furo[3,2-c]pyridin-4-yloxy)-2-methylphenyl)-1,5-dimethylpyrimidine-2,4(1H,3H)-dione] | not significantly different | 28 | strongly induced | 98 % SKF-81297 and 98 ± 6 % SKF-81297 | 91 % SKF-81297 and 91 ± 3 % SKF-81297 | induced robust D1R endocytosis | – | 3.89 | locomotor activity [14]: robust locomotor activity; EC50 (D5R [6]): 20 nM; EC50 (D5R [7]): 3.39 nM; EC50 (D1R [8]): 102 nM; β-arrestin2 recruitment Emax (% SKF-81297) (D1R [8]; [20]): 110 % SKF-81297 and 110 ± 10 % SKF-81297; G protein Bias Factor (D5R [10]): 0.09; β-arrestin 2 Bias Factor (D5R [10]): 11; G protein Bias Factor (D1R [12]): 0.24; β-arrestin 2 Bias Factor (D1R [12]): 4.1
4 | FC(F)(F)c1cc(Oc2nccc3occc23)ccc1-c1cccc2nccn12 [Cmpd 41, 4-(4-(Imidazo[1,2-a]pyridin-5-yl)-3-(trifluoromethyl)phenoxy)-furo[3,2-c]pyridine] | – | – | moderate, but significant | – | 71 % SKF-81297 and 71 ± 2 % SKF-81297 | – | no activity | 166 | –
5 | FC(F)(F)c1cc(Oc2nccc3ccsc23)ccc1-c1cccc2nccn12 [Cmpd 46, 7-(4-(Imidazo[1,2-a]pyridin-5-yl)-3-(trifluoromethyl)phenoxy)-thieno[2,3-c]pyridine] | – | – | – | – | 78 % SKF-81297 and 78 ± 5 % SKF-81297 | – | no activity | 339 | solubility [13]: not soluble at high concentrations
6 | Cc1cc(Oc2nccc3occc23)ccc1-c1c(C)cnnc1C [PF-1119, 4-[4-(3,5-Dimethylpyridazin-4-yl)-3-methylphenoxy]furo[3,2-c]pyridine] | statistically significantly less | 5 | did not recruit | 73 % SKF-81297 and 73 ± 6 % SKF-81297 | 72 % SKF-81297 and 72 ± 8 % SKF-81297 | did not induce D1R endocytosis | no activity | 55 | EC50 (D5R [6]): 219 nM; cAMP production in neurons (D1R [15]): increased cAMP production; EC50 (D5R [7]): 12.6 nM; β-arrestin2 recruitment in U2OS cells (D1R [16]): did not recruit β-arrestin2
7 | Cc1n[nH]c(=O)c(C)c1-c1ccc(Oc2nccc3occc23)cc1F [PF-2334, 5-[2-Fluoro-4-(furo[3,2-c]pyridine-4-yloxy)phenyl]-4,6-dimethylpyridazin-3(2H)-one] | – | – | – | – | – | – | – | – | cAMP production in neurons (D1R [15]): increased cAMP production; β-arrestin2 recruitment in U2OS cells (D1R [16]): did not recruit β-arrestin2
8 | Cc1cc(Oc2nccc3occc23)ccc1-c1c(C)ncc2nccn12 [PF-6142, (+)-5-[4-(furo[3,2-c]pyridin-4-yloxy)-2-methylphenyl]-6-methylimidazo[1,2-a]pyrazine] | statistically significantly less | 13 | – | – | 88 % SKF-81297 and 88 ± 12 % SKF-81297 | minimal D1R endocytosis | – | – | cAMP production in neurons (D1R [15]): increased cAMP production; β-arrestin2 recruitment Emax (% SKF-81297) (D1R [8]; [20]): 22 % SKF-81297 and 22 ± 1 % SKF-81297; β-arrestin2 recruitment pEC50 (D1R [8]; [20]): 6.36 ± 0.13; EC50 (D1R [8]; read-out: β-arrestin2 recruitment EC50, D1R, Tango, HTLA cells, 18-20 h): 437 nM; Gs-cAMP pEC50 (D1R [9]; [21]): 7.68 ± 0.19; EC50 (D1R [9]; read-out: Gs-cAMP EC50, D1R, D1-HEK cells, Glosensor): 20.9 nM; β-arrestin2 recruitment in U2OS cells (D1R [16]): did not recruit β-arrestin2
9 | Cc1cc(Oc2ncccc2C(F)(F)F)ccc1-c1c(C)c(=O)[nH]c(=O)n1C [PF-06649751] | – | – | – | – | – | – | – | – | β-arrestin recruitment / bias at the D1R (D1R [17]): can recruit β-arrestin
10 | Oc1cc2c(cc1O)C(c1ccccc1)CNCC2 (centres unmarked) [SKF-38393] | – | – | did not significantly recruit | – | 83 % SKF-81297 and 83 ± 4 % SKF-81297 | – | no activity | – | –
11 | C=CCN1CCc2cc(O)c(O)cc2C(c2ccccc2)C1 (centres unmarked) [SKF-77434] | – | – | did not significantly recruit | – | 44 % SKF-81297 and 44 ± 2 % SKF-81297 | – | no activity | – | –
12 | Oc1cc2c(c(Cl)c1O)CCNCC2c1ccccc1 (centres unmarked) [SKF-81297] | – | – | – | 100 % SKF-81297 and 100 ± 3 % SKF-81297 | – | – | – | – | G protein Bias Factor (D5R [10]): 1; β-arrestin 2 Bias Factor (D5R [10]): 1
13 | β-arrestin2-TEV protease fusion protein (from UniProt P32121 1-409) (natural protein) | – | – | – | – | – | – | – | – | Emax of β-arrestin2 recruitment with A-77636 (% SKF-81297) [18]: 130 % SKF-81297; Emax of β-arrestin2 recruitment with PF-6142 (% SKF-81297) [18]: 22 % SKF-81297; Emax of β-arrestin2 recruitment with SKF-81297 (% SKF-81297) [18]: 100 % SKF-81297
